Nine compounds from ChEMBL document CHEMBL1150691, “New lysophosphatidylcholines and monoglycerides from the marine sponge Stelletta sp” (2003) can be followed below.

Structures are written as SMILES. ≈ marks a conversion by molar mass, not a printed value. Some results are limits rather than exact numbers.

What all share (type): functional
Common to all, as to conditions: read-out: ED50 (the source's name)

For one assay, the system named is A549. Description: Cytotoxicity against human A549 cells.
In another assay the test system is SK-MEL-2. Put plainly: Cytotoxicity against human SK-MEL-2 cells.
The next assay deals with SK-OV-3. Put plainly: Cytotoxicity against human SKOV3 cells.
For another assay, the system named is HCT-15. Description: Cytotoxicity against human HCT15 cells.
The subject of a further assay is XF498. Description: Cytotoxicity against human XF498 cells.

For `CC(C)CCCCCCCCCC(C)C(=O)OC[C@@H](O)CO` (stereo not given in full), the EC50 is 20 µg/mL (≈ 63.2 µM) in the assay on A549; 21.8 µg/mL (≈ 68.9 µM) in the assay on SK-MEL-2; 38.9 µg/mL (≈ 123 µM) in the assay on SK-OV-3; 18.6 µg/mL (≈ 58.8 µM) in the assay on HCT-15; 30.7 µg/mL (≈ 97 µM) in the assay with XF498.
Taken in the same sequence, the figures for `CC(C)CCCCCCCCCCCCC/C=C\CCCC(=O)OC[C@@H](O)CO` were over 30 µg/mL, over 30 µg/mL, over 30 µg/mL, over 30 µg/mL and over 30 µg/mL.
Taken in the same sequence, the figures for `CC(C)CCCCCCCCCCCC/C=C\CC/C=C\CCCC(=O)OC[C@@H](O)CO` were over 30 µg/mL, over 30 µg/mL, over 30 µg/mL, over 30 µg/mL and over 30 µg/mL.
Taken in the same sequence, the figures for `C=CCCCCC(C)CCC/C=C\C#CCC[C@H](OC)C(=O)OC[C@@H](O)COP(=O)([O-])CC[N+](C)(C)C` (stereo not given in full) were 11.8 µg/mL (≈ 21.7 µM), 9.1 µg/mL (≈ 16.7 µM), 14.5 µg/mL (≈ 26.7 µM), 15.1 µg/mL (≈ 27.8 µM) and 13.6 µg/mL (≈ 25 µM).
Take `C=CCCCCC(C)CCC/C=C\C#CCC[C@H](OC)C(=O)OC[C@@H](O)CO` (stereo not given in full): the EC50 in the assay on A549 was 31.3 µg/mL (≈ 79.3 µM); with SK-MEL-2, over 30 µg/mL; with SK-OV-3, over 30 µg/mL; in the assay with HCT-15, over 30 µg/mL; in the assay on XF498, 42.5 µg/mL (≈ 108 µM).
Take `COC(=O)CCCCCCCCCCCCCCCCO`: the EC50 in the assay with A549, in the assay with SK-MEL-2, in the assay with SK-OV-3, in the assay with HCT-15 and in the assay on XF498 was over 30 µg/mL in each case.
Turning to `COC(=O)CCCCCCCCCCCCCCO`, the EC50 was 25.9 µg/mL (≈ 95.1 µM) in the assay with A549; over 30 µg/mL with SK-MEL-2; 35.7 µg/mL (≈ 131 µM) with SK-OV-3; 16.5 µg/mL (≈ 60.6 µM) in the assay on HCT-15; over 30 µg/mL in the assay with XF498.
As for `COc1cccc2c1C(=O)c1c(O)c3c(c(O)c1C2=O)C[C@@](O)(C(=O)CO)C[C@@H]3O[C@H]1C[C@H](N)[C@H](O)[C@H](C)O1` [DOXORUBICIN], the EC50 in the assay on A549 was 0.03 µg/mL (≈ 0.0552 µM); in the assay on SK-MEL-2, 0.06 µg/mL (≈ 0.11 µM); in the assay on SK-OV-3 it was 0.13 µg/mL (≈ 0.239 µM); in the assay with HCT-15 it was 0.29 µg/mL (≈ 0.534 µM); with XF498 it was 0.19 µg/mL (≈ 0.35 µM).
Turning to `CC(C)CCCCCCCCCC(C)C(=O)OC[C@@H](O)COP(=O)([O-])CC[N+](C)(C)C` (stereo not given in full) [STELLETTACHOLINE B], the EC50 in the assay on A549 was 7.4 µg/mL (≈ 15.9 µM); in the assay on SK-MEL-2 it was 6.3 µg/mL (≈ 13.5 µM); in the assay on SK-OV-3 it was 4.8 µg/mL (≈ 10.3 µM); in the assay on HCT-15, 26.9 µg/mL (≈ 57.8 µM); in the assay with XF498 it was 24.1 µg/mL (≈ 51.8 µM).
